Reference: ChEMBL document CHEMBL1131321, “Pharmacophoric requirements for cannabinoid side chains: multiple bond and C1'-substituted delta 8-tetrahydrocannabinols” (J Med Chem, 1998)

Assays:
Cannabinoid receptor 1 = Cannabinoid receptor 1 (Rattus norvegicus, UniProt P20272); assay: The compound was evaluated for its affinity towards cannabinoid receptor 1 (CB1) in rat brain; type: tissue-based
Cannabinoid receptor 2 = Cannabinoid receptor 2 (Mus musculus, UniProt P47936); assay: The compound was evaluated for its affinity towards cannabinoid receptor 2 (CB2) in mouse spleen; type: tissue-based
Cannabinoid receptor 2, sequence (P47936 whole entry): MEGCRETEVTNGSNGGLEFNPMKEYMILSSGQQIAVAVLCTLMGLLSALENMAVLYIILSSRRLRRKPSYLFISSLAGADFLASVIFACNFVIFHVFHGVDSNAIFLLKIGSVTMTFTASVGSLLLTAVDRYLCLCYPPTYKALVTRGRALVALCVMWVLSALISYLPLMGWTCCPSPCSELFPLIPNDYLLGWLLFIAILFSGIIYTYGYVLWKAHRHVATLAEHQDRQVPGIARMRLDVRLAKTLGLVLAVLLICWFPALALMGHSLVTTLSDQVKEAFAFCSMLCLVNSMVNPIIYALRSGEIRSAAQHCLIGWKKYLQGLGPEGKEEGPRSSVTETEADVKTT

Cannabinoid receptor 1, sequence (P20272 whole entry): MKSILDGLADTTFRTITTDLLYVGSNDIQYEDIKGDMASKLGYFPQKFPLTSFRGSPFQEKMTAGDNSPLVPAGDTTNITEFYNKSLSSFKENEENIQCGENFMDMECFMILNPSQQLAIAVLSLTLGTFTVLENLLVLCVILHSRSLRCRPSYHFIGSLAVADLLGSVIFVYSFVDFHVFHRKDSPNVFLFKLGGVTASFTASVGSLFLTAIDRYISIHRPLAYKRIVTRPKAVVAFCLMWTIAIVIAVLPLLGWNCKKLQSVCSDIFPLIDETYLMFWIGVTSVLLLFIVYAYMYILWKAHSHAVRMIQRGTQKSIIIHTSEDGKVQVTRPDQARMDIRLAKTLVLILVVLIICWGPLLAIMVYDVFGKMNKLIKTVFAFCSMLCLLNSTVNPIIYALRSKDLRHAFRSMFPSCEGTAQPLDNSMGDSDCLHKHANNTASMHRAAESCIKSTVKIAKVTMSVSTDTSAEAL

SMILES | Ki (Cannabinoid receptor 1) | Ki (Cannabinoid receptor 2; read-out: Ki) | Ki (Cannabinoid receptor 2)
CCCCCCC(O)c1cc(O)c2c(c1)OC(C)(C)[C@@H]1CC=C(C)C[C@@H]21 (stereo partly specified) | 86.4 nM | 65.6 nM | –
CCCCCCC1(c2cc(O)c3c(c2)OC(C)(C)[C@@H]2CC=C(C)C[C@@H]32)CC1 | 2.17 nM | 3.3 nM | –
CCCCCC#Cc1cc(O)c2c(c1)OC(C)(C)[C@@H]1CC=C(C)C[C@@H]21 | 0.65 nM | 3.1 nM | –
C=C(C)[C@@H]1CCC(C)=C[C@H]1c1c(O)cc(C2(CCCCCC)SCCS2)cc1O | 136 nM | 50.4 nM | –
CCCCCCC(=O)c1cc(O)c2c(c1)OC(C)(C)[C@@H]1CC=C(C)C[C@@H]21 | 21.7 nM | 83.7 nM | –
CCCCCCC1(c2cc(O)c3c(c2)OC(C)(C)[C@@H]2CC=C(C)C[C@@H]32)SCCS1 | – | – | 0.52 nM
